The results in this text go back to article PMC11940147, “Copper Hexacyanoferrates Obtained via Flavocytochrome b2 Assistance: Characterization and Application” (Biosensors, 2025).

Assay [1] has as its target T1, flavocytochrome b2 (Fcb2) (Ogataea polymorpha, UniProt A0A9P8PNE1).
T1 construct: gene OGATHE_001663
T1 sequence (A0A9P8PNE1 55-553): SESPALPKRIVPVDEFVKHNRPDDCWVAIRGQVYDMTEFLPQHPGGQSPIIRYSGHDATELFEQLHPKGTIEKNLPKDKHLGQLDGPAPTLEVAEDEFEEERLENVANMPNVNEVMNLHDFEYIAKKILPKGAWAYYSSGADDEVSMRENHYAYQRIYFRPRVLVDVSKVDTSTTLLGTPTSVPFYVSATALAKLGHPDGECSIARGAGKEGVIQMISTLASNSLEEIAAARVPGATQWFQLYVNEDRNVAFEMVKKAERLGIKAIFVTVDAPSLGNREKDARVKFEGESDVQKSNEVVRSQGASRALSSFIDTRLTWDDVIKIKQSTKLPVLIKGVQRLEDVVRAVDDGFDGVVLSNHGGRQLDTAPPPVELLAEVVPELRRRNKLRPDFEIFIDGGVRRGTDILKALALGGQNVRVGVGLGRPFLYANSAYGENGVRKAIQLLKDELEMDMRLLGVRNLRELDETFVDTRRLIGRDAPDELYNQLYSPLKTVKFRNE
Briefly: cyclic voltammetry and chronoamperometry, Fcb2 in gCuHCF on graphite electrode. It is filed as biochemical.

Assay [2] concerns T2, L-arginine oxidase (ArgO).
T2 construct: native, purified from the mushroom by the authors' method
As to the kind of experiment: colorimetric H2O2 detection with gCuHCF and o-dianisidine, Lineweaver-Burke. The assay is classed as biochemical, Amanita phalloides. The conditions noted are these: enzyme in solution; coupled to gCuHCF peroxidase mimic. The source says:
colorimetric H2O2 detection with gCuHCF and o-dianisidine, Lineweaver-Burke on L-arginine oxidase (ArgO) | kinetic constants of ArgO in the ArgO/gCuHCF/o-DZ method with respect to Arg

In the case of `C[C@H](O)C(=O)O` [L-lactate], in assay [1], the “cyclic voltammetry and chronoamperometry, Fcb2 in gCuHCF on graphite electrode” value is “current output on lactate addition correlates with Fcb2 activity in the sensing layer”. The term Km denotes the substrate concentration at which the rate is half of its maximum. Take `N=C(N)NCCC[C@H](N)C(=O)O` [L-arginine]: the Km in assay [2] was 300 µM.
